Measured values taken from the OPERA property sets (Mansouri et al. 2018).
Peptide text beside a SMILES is read from it.

N#CCC(=O)NC(CO)C(O)c1ccc([N+](=O)[O-])cc1 (stereo not given)
logP: -0.22

CCCCCOc1ccc(O)cc1
logP: 3.5

OCCN1CCN(CCCN2c3ccccc3Sc3ccc(C(F)(F)F)cc32)CC1
logP: 4.36

NC[C@H](O)c1ccc(O)c(O)c1
logP: -1.24

CC(=O)Sc1ccccc1
logP: 2.23

c1ccc(Oc2ccccn2)cc1
logP: 2.39

CC(=O)Nc1cccc(O)c1
logP: 0.73

CC1CCC(=O)CC1
logP: 1.38

O=C(CCNNC(=O)c1ccncc1)NCc1ccccc1
logP: 0.87

COCC1COC(Cn2cncn2)(c2ccc(Cl)cc2Cl)O1 (stereo not given)
logP: 2.21

CN1CCN(C)CC1
logP: -0.4

CCC(C)c1ccc(O)cc1 (stereo not given)
logP: 3.08

CC(=O)OCC1=C(C(=O)O)N2C(=O)[C@@H](NC(=O)Cc3cccs3)[C@H]2SC1
logP: -0.41

CC(C)c1cccc(C(C)C)c1NC(N)=O
logP: 2.26

CCOC(=O)Nc1ccccc1
logP: 2.3

O=c1[nH]cc(Cl)c(=O)[nH]1
logP: -0.35

CC(=O)C(=Cc1ccccc1)C(C)=O
logP: 1.59

O=C(O)COc1cccc(NC(=O)c2ccccc2)c1
logP: 1.99

N#Cc1ccc(C(=O)O)cc1
logP: 1.56

COc1cc(C(=O)O)ccc1O
logP: 1.43

Nc1nc(N)c2ccccc2n1
logP: 1

CCc1ccccc1C
logP: 3.53

O=C(CN1CCCCC1)Nc1ccccc1[N+](=O)[O-]
logP: 2.75

FC(F)(F)c1nc2ccc(Br)cc2[nH]1
logP: 3.57

COC(=O)NC(=S)Nc1ccccc1NC(=S)NC(=O)OC
logP: 1.4

O=[N+]([O-])c1ccc2sccc2c1
logP: 2.92

O=C(OCn1ncc2c(=O)[nH]cnc21)c1ccc(CN2CCOCC2)cc1
logP: 1.12

CC(C)(C)C(=O)NN
logP: -0.35

c1ccc2c(c1)CCc1ccccc1-2
logP: 4.52

O=C1CCC(=O)N1c1ccc([N+](=O)[O-])cc1
logP: 0.46

CCc1cnc(NS(=O)(=O)c2ccc(N)cc2)nc1
logP: 0.9

CCOC(=O)C(=Cc1ccccc1OC)C(C)=O
logP: 2.39

CON(C)C(=O)Nc1ccc(C(=O)c2ccccc2)cc1
logP: 2.86

Cc1n[nH]c(C(=O)N(C)Cc2ccccc2)c1[N+](=O)[O-]
logP: 1.65

CC(=O)N[C@@H](Cc1ccc(O)cc1)C(=O)N[C@@H](Cc1ccccc1)C(N)=O (Ac-Tyr-Phe-NH2)
logP: 0.54

C=CCCCCC
logP: 3.99

FC(F)F
logP: 0.64

C=CCOC(=O)c1ccccc1C(=O)OCC=C
logP: 3.23

C=CC(=O)O
logP: 0.35

COc1cnc(NS(=O)(=O)c2ccc(N)cc2)nc1
logP: 0.41

Cc1ccc2cc(C)ccc2c1
logP: 4.31

CCOC(=O)c1cccs1
logP: 2.33

Cc1cccc2ccccc12
logP: 3.87

NC(C(=O)O)c1cccs1 (stereo not given)
logP: -2.05

NNC(=O)c1cccc(Br)c1
logP: 1.26

Clc1cc(Cl)c(-c2c(Cl)cc(Cl)cc2Cl)c(Cl)c1
logP: 7.55

C1CN2CCC1CC2
logP: 1.38

CC(C)(C)C(=O)OCC1CCC(n2cnc3c(=O)[nH]cnc32)O1 (stereo not given)
logP: 0.6

CCCCCCc1ccncc1
logP: 4.35

NCc1cc(O)no1
logP: -2.39

O=C1C=C(N2CC2)C(=O)c2ccccc21
logP: 1.71

COc1ccc(O)c2ncccc12
logP: 2.06

NCCCNC(=O)c1ccccc1
logP: 0.3

O=NN1CCSCC1
logP: 0.4

CC(=O)Nc1ccccn1
logP: 0.61

CON(C)/N=N/c1ccc(C(N)=O)cc1
logP: 1.19

CCCCOC(=O)c1ccccc1
logP: 3.84

CCCCOC(=O)Oc1cccc(C2(C(=O)CC)CCN(C)CC2)c1
logP: 2.42

CO[C@H]1[C@@H](O)C[C@H](O[C@H]2[C@@H](O)C[C@H](O[C@H]3[C@@H](O)C[C@H](O[C@H]4CC[C@@]5(C)[C@H](CC[C@@H]6[C@@H]5C[C@@H](O)[C@]5(C)[C@@H](C7=CC(=O)OC7)CC[C@]65O)C4)O[C@@H]3C)O[C@@H]2C)O[C@@H]1C
logP: 1.8

CCCCN(C)C
logP: 1.7

COc1ccc(O)cc1
logP: 1.58

c1cnc2ccc3ncccc3c2c1
logP: 2.05

CC1(O)CC23CC(O)C4(O)C(CC(O)C4(C)C)C(C)(O)C2CCC1C3O (stereo not given)
logP: 0.27

Brc1ccccc1Br
logP: 3.64

CN(C)c1nc2c3cccnc3ccc2n1C
logP: 2.28

COP(=O)(OC)Oc1ccc([N+](=O)[O-])cc1
logP: 1.33

Cc1cc2ccccc2n1C
logP: 2.82

CN(C)C(=O)OCc1cccc(Cl)c1
logP: 2.82

CCOCC1CO1 (stereo not given)
logP: 0.36

C#CC
logP: 0.94

Oc1cc(Cl)ccc1Cl
logP: 3.06

CCCCOCC1CO1 (stereo not given)
logP: 0.63

CC(C)(C)C(=O)Nc1ccccc1
logP: 1.99

Nc1cccc2nc3ccccc3cc12
logP: 2.47

COc1cc(N)c(Cl)cc1C(=O)NC1CCN(Cc2ccccc2)CC1
logP: 3.58

NC(=S)c1cccs1
logP: 1.34

Clc1ccc(Cl)c(-c2c(Cl)ccc(Cl)c2Cl)c1
logP: 6.55

NC(=O)Nc1ccc(Oc2ccccc2)cc1
logP: 2.8

O=C(COc1ccccc1)Nc1ccccc1
logP: 2.73

O=C1CCC(=O)N1c1ccccc1[N+](=O)[O-]
logP: 0.36

CC(C)C(=O)NC(CO)C(O)c1ccc([N+](=O)[O-])cc1 (stereo not given)
logP: 0.79

O=C(O)COc1ccc(Cl)cc1Cl
logP: 2.81

O=C(O)COc1cccc([N+](=O)[O-])c1
logP: 1.37

COc1ccccc1N
logP: 1.18

CCCC(=NOCC)C1C(=O)CC2(CCC(C)C2)OC1=O (stereo not given)
logP: 3.66

O=[N+]([O-])Cc1ccccc1
logP: 1.75

Cc1ccnc2c(O)ccc(O)c12
logP: 1.59

Cc1nnc(NS(=O)(=O)c2ccc(N)cc2)s1
logP: 0.54

CO
logP: -0.77

Oc1cccc(-c2ccccc2)c1
logP: 3.23

CSc1nc(NC(C)C)nc(NC(C)C)n1
logP: 3.51

O=C(O)COc1ccccc1O
logP: 0.85

C1=CCCCC1
logP: 2.86

O=C1CCC(=O)N1c1cccc(I)c1
logP: 1.39

CCOc1ccccc1-c1nc(N)nc(N)n1
logP: 1.03

Clc1ccc(-c2cc3ccccn3c2)cc1
logP: 5.2

CN(C)c1ccc(S(N)(=O)=O)cc1
logP: 0.76

CN1C(=O)CN=C(c2ccccc2F)c2cc(Cl)ccc21
logP: 2.75

CCCCC(N)Cc1ccccc1 (stereo not given)
logP: 3.36

CCc1nnc(N)o1
logP: -0.3

Cc1cccc(OCC(=O)NNC(C)C)c1
logP: 1.77

CCOC(=O)c1ccoc1
logP: 1.78

Cc1c[nH]cn1
logP: 0.23

CC(=O)Nc1ccccc1
logP: 1.16

CC(=O)NC(C(=O)NC(CCC(N)=O)C(N)=O)C(C)C (stereo not drawn) (Ac-Val-Gln-NH2; configuration not given here)
logP: -1.82

COc1ccc(NC=O)cc1
logP: 1.03

NC(=O)CCl
logP: -0.53

CCN(CC)C(=O)c1cccnc1
logP: 0.33

CC(C)(C)NC(=O)NO
logP: 0.5

Cc1c(Cl)cc(-c2ccc(=O)[nH]n2)cc1Cl
logP: 3.2

COC(C)(C)CCCC(C)C/C=C/C(C)=C/C(=O)OC(C)C (stereo not given)
logP: 5.5

OC(c1ccc(Cl)cc1)(c1cncnc1)c1ccccc1Cl (stereo not given)
logP: 3.6

C=CCC1(CC)C(=O)NC(=O)NC1=O
logP: 0.95

Nc1ccccc1
logP: 0.9

Cc1cccc(OCc2ccccc2)n1
logP: 3.43

COc1ccc(OC)c(N)c1
logP: 1.2

CCCNC(=O)c1ccc(S(N)(=O)=O)cc1
logP: 0.51

C(=Nc1ccccc1)c1ccccc1
logP: 2.82

CC(=O)N[C@@H](Cc1ccccc1)C(=O)N[C@@H](CCC(N)=O)C(N)=O
logP: -1.03

COc1c(Cl)ccc(Cl)c1C(=O)O
logP: 2.21

CN1C(=O)CN=C(c2ccccc2)c2cc(C#N)ccc21
logP: 1.8

CCC(C)c1ccccc1O (stereo not given)
logP: 3.27

COC(=O)c1ccccc1OC(C)=O
logP: 1.46

CCN(N=O)C(C)C
logP: 0.9

O=C(O)Cc1ccccc1O
logP: 0.85

CCCNC
logP: 0.84

Cc1cc(C)[nH]n1
logP: 1.01

CCOP(=S)(OCC)SCSP(=S)(OCC)OCC
logP: 5.07

O=C(O)c1ccc(O)c([N+](=O)[O-])c1
logP: 1.85

CCC1Nc2cc(Cl)c(S(N)(=O)=O)cc2S(=O)(=O)N1 (stereo not given)
logP: 0.3

CN(N=O)C(N)=O
logP: -0.03

Cc1ccco1
logP: 1.85

CN(C)C(=O)OCc1ccc(Br)cc1
logP: 3.01

CC(=O)c1cnc2ccccc2c1
logP: 1.76

CC(CO)NCc1ccccc1 (stereo not given)
logP: 1.28

CCc1ccc([N+](=O)[O-])cc1
logP: 3.03

CCCCC(=O)Nc1ccccc1
logP: 2.61

NNC(=O)c1ccc([N+](=O)[O-])cc1
logP: 0.35

CCN(CC)CCNC(=O)c1ccccc1OC
logP: 1.98

O=Cc1cccc([N+](=O)[O-])c1
logP: 1.47

OCCCc1ccncc1
logP: 0.58

O=C(O)CCCCCc1ccccc1
logP: 3.27

NCCN1CCCC1
logP: 0.08

CC(=O)c1ccccc1Cl
logP: 2.09

COP(=S)(OC)Oc1ccc([N+](=O)[O-])c(Cl)c1
logP: 3.45

[O-][n+]1ccccc1
logP: -1.2

CN(C)C(=O)Nc1ccc(C2CCCCC2)cc1
logP: 3.83

C=CCOc1ccccc1C(=C)n1ccnc1
logP: 2.79

O=C(CN1CCCCC1)Nc1ccc(Br)cc1
logP: 3.57

CCCOP(=O)(OCCC)Oc1ccc(SC)cc1
logP: 3.67

CCCCCCCCN(C)/N=N/c1ccc(C(N)=O)cc1
logP: 4.7

O=NN1CCOCC1
logP: -0.44

NC(=O)c1cnc2ccccc2n1
logP: 0.98

ClC1CC(Cl)C(Cl)C(Cl)C1Cl (stereo not given)
logP: 3.53

CC(C)(C)C1Nc2cc(Cl)c(S(N)(=O)=O)cc2S(=O)(=O)N1 (stereo not given)
logP: 0.36

CCCCCCCOc1ccc(NC(=O)OCCN2CCCCC2)cc1
logP: 5.87

CCC1C2CC3C4N(C)c5ccccc5C45CC(C2C5O)N3C1O (stereo not given)
logP: 1.81

CCCCCOC(=O)c1ccc(S(N)(=O)=O)cc1
logP: 2.71

O=NN(CCCl)C(=O)NCCCl
logP: 1.53

CNc1ccccc1[N+](=O)[O-]
logP: 2.18

COC(=O)C(Cc1ccc(O)cc1)NC(C)=O (stereo not given)
logP: 0.33

COC(=O)c1ccccn1
logP: 0.36

CCN(CC)CCCN(c1ccccc1)C1Cc2ccccc2C1
logP: 4.86

Cc1ccccc1S(I)=C(N(C)C)N(C)C (stereo not given)
logP: -0.1

CCC(=O)OC1(C(=O)CCl)C(C)CC2C3CCC4=CC(=O)C=CC4(C)C3(Cl)C(O)CC21C (stereo not given)
logP: 3.28
